Source: PubChem BioAssay (NCI)
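Assay format: 96-well plates, 48-hour exposure. Definition used: TGI = concentration required for complete inhibition of growth.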

Experiments:
Assay in all cases: growth of human tumour cells (NCI), 48 h
786-0 renal = tested on: 786-0 renal
A498 renal = tested on: A498 renal
A549 NSCLC = tested on: A549 NSCLC
ACHN renal = tested on: ACHN renal
BT-549 breast = tested on: BT-549 breast
CAKI-1 renal = tested on: CAKI-1 renal
CCRF-CEM leukemia = tested on: CCRF-CEM leukemia
COLO 205 colon = tested on: COLO 205 colon
DU-145 prostate = tested on: DU-145 prostate
EKVX NSCLC = tested on: EKVX NSCLC
HCC-2998 colon = tested on: HCC-2998 colon
HCT-116 colon = tested on: HCT-116 colon
HCT-15 colon = tested on: HCT-15 colon
HL-60(TB) leukemia = tested on: HL-60(TB) leukemia
HOP-62 NSCLC = tested on: HOP-62 NSCLC
HOP-92 NSCLC = tested on: HOP-92 NSCLC
HS 578T breast = tested on: HS 578T breast
HT29 colon = tested on: HT29 colon
IGROV1 ovarian = tested on: IGROV1 ovarian
K-562 leukemia = tested on: K-562 leukemia
KM12 colon = tested on: KM12 colon
LOX IMVI melanoma = tested on: LOX IMVI melanoma
M14 melanoma = tested on: M14 melanoma
MALME-3M melanoma = tested on: MALME-3M melanoma
MCF7 breast = tested on: MCF7 breast
MDA-MB-231 breast = tested on: MDA-MB-231 breast
MDA-MB-435 = tested on: MDA-MB-435
MDA-N = tested on: MDA-N
MOLT-4 leukemia = tested on: MOLT-4 leukemia
NCI-H226 lung = tested on: NCI-H226 lung
NCI-H23 lung = tested on: NCI-H23 lung
NCI-H460 lung = tested on: NCI-H460 lung
NCI-H522 lung = tested on: NCI-H522 lung
NCI/ADR-RES ovarian = tested on: NCI/ADR-RES ovarian
OVCAR-3 ovarian = tested on: OVCAR-3 ovarian
OVCAR-4 ovarian = tested on: OVCAR-4 ovarian
OVCAR-5 ovarian = tested on: OVCAR-5 ovarian
OVCAR-8 ovarian = tested on: OVCAR-8 ovarian
PC-3 prostate = tested on: PC-3 prostate
RPMI-8226 leukemia = tested on: RPMI-8226 leukemia
RXF 393 renal = tested on: RXF 393 renal
SF-268 CNS = tested on: SF-268 CNS
SF-295 CNS = tested on: SF-295 CNS
SF-539 CNS = tested on: SF-539 CNS
SK-MEL-2 melanoma = tested on: SK-MEL-2 melanoma
SK-MEL-28 melanoma = tested on: SK-MEL-28 melanoma
SK-MEL-5 melanoma = tested on: SK-MEL-5 melanoma
SK-OV-3 ovarian = tested on: SK-OV-3 ovarian
SN12C renal = tested on: SN12C renal
SNB-19 CNS = tested on: SNB-19 CNS
SR leukemia = tested on: SR leukemia
T-47D breast = tested on: T-47D breast
TK-10 renal = tested on: TK-10 renal
U251 CNS = tested on: U251 CNS
UACC-257 melanoma = tested on: UACC-257 melanoma
UACC-62 melanoma = tested on: UACC-62 melanoma
UO-31 renal = tested on: UO-31 renal
SNB-75 CNS = tested on: SNB-75 CNS
SW-620 colon = tested on: SW-620 colon

`Cc1ccc(/C(O)=C/c2nc3ccccc3[nH]c2=O)cc1` was tested, and the TGI (786-0 renal) was 5.61 µM, the TGI (A498 renal) was 58.2 µM and the TGI (A549 NSCLC) was 19.6 µM. It also gave a TGI (ACHN renal) of 14.5 µM, a TGI (BT-549 breast) of 95.3 µM and a TGI (CAKI-1 renal) of 14.2 µM. For the same molecule, the TGI (CCRF-CEM leukemia) was > 100 µM, the TGI (COLO 205 colon) was > 100 µM and the TGI (DU-145 prostate) was 21.5 µM. For the same molecule, the TGI (EKVX NSCLC) was 21.1 µM, the TGI (HCC-2998 colon) was > 100 µM and the TGI (HCT-116 colon) was 5.7 µM. The TGI (HCT-15 colon) was > 100 µM, the TGI (HL-60(TB) leukemia) was > 100 µM and the TGI (HOP-62 NSCLC) was 5.16 µM. It also gave a TGI (HOP-92 NSCLC) of 27.1 µM, a TGI (HS 578T breast) of 6.79 µM and a TGI (HT29 colon) of 67.2 µM. For the same molecule, the TGI (IGROV1 ovarian) was 5.92 µM, the TGI (K-562 leukemia) was > 100 µM and the TGI (KM12 colon) was > 100 µM. For the same molecule, the TGI (LOX IMVI melanoma) was 52.1 µM, the TGI (M14 melanoma) was 73.4 µM and the TGI (MALME-3M melanoma) was 13.4 µM. The TGI (MCF7 breast) was > 100 µM, the TGI (MDA-MB-231 breast) was 15.2 µM and the TGI (MDA-MB-435) was 31.8 µM. The TGI (MDA-N) was > 100 µM, the TGI (MOLT-4 leukemia) was > 100 µM and the TGI (NCI-H226 lung) was 6.4 µM. The TGI (NCI-H23 lung) was 33.4 µM, the TGI (NCI-H460 lung) was 37.3 µM and the TGI (NCI-H522 lung) was 6.59 µM. It also gave a TGI (NCI/ADR-RES ovarian) of 23 µM, a TGI (OVCAR-3 ovarian) of 11.2 µM and a TGI (OVCAR-4 ovarian) of 4.04 µM. The TGI (OVCAR-5 ovarian) was > 100 µM, the TGI (OVCAR-8 ovarian) was 12.2 µM and the TGI (PC-3 prostate) was > 100 µM. It also gave a TGI (RPMI-8226 leukemia) of 47.5 µM, a TGI (RXF 393 renal) of 7.1 µM and a TGI (SF-268 CNS) of 24 µM. It also gave a TGI (SF-295 CNS) of 14.6 µM, a TGI (SF-539 CNS) of 27.6 µM and a TGI (SK-MEL-2 melanoma) of 17.6 µM. For the same molecule, the TGI (SK-MEL-28 melanoma) was 23.2 µM, the TGI (SK-MEL-5 melanoma) was > 100 µM and the TGI (SK-OV-3 ovarian) was 5.64 µM. The TGI (SN12C renal) was 34 µM, the TGI (SNB-19 CNS) was 27.8 µM and the TGI (SR leukemia) was 72.9 µM. It also gave a TGI (T-47D breast) of 16.3 µM, a TGI (TK-10 renal) of 11.1 µM and a TGI (U251 CNS) of 22.6 µM. It also gave a TGI (UACC-257 melanoma) of 87.4 µM, a TGI (UACC-62 melanoma) of 9.38 µM and a TGI (UO-31 renal) of 21 µM.

With `Cc1cc(Cc2c(C)c(C)c(Cc3cc(C)cc(C(C)(C)C)c3O)c(C)c2C)c(O)c(C(C)(C)C)c1` the TGI (786-0 renal) was > 100 µM, the TGI (A498 renal) was > 100 µM and the TGI (A549 NSCLC) was > 100 µM. The TGI (ACHN renal) was > 100 µM, the TGI (BT-549 breast) was > 100 µM and the TGI (CAKI-1 renal) was > 100 µM. The TGI (COLO 205 colon) was > 100 µM, the TGI (DU-145 prostate) was > 100 µM and the TGI (EKVX NSCLC) was > 100 µM. The TGI (HCT-116 colon) was > 100 µM, the TGI (HCT-15 colon) was > 100 µM and the TGI (HL-60(TB) leukemia) was 83.6 µM. For the same molecule, the TGI (HOP-62 NSCLC) was > 100 µM, the TGI (HOP-92 NSCLC) was > 100 µM and the TGI (HS 578T breast) was > 100 µM. For the same molecule, the TGI (HT29 colon) was > 100 µM, the TGI (IGROV1 ovarian) was > 100 µM and the TGI (K-562 leukemia) was > 100 µM. The TGI (KM12 colon) was > 100 µM, the TGI (LOX IMVI melanoma) was > 100 µM and the TGI (M14 melanoma) was > 100 µM. The TGI (MALME-3M melanoma) was > 100 µM, the TGI (MCF7 breast) was > 100 µM and the TGI (MDA-MB-231 breast) was > 100 µM. The TGI (MDA-MB-435) was > 100 µM, the TGI (MDA-N) was > 100 µM and the TGI (MOLT-4 leukemia) was > 100 µM. The TGI (NCI-H226 lung) was > 100 µM, the TGI (NCI-H460 lung) was > 100 µM and the TGI (NCI-H522 lung) was > 100 µM. The TGI (NCI/ADR-RES ovarian) was > 100 µM, the TGI (OVCAR-3 ovarian) was > 100 µM and the TGI (OVCAR-4 ovarian) was > 100 µM. For the same molecule, the TGI (OVCAR-5 ovarian) was > 100 µM, the TGI (OVCAR-8 ovarian) was > 100 µM and the TGI (PC-3 prostate) was > 100 µM. The TGI (RPMI-8226 leukemia) was > 100 µM, the TGI (RXF 393 renal) was > 100 µM and the TGI (SF-268 CNS) was > 100 µM. The TGI (SF-295 CNS) was > 100 µM, the TGI (SF-539 CNS) was > 100 µM and the TGI (SK-MEL-2 melanoma) was > 100 µM. For the same molecule, the TGI (SK-MEL-28 melanoma) was > 100 µM, the TGI (SK-MEL-5 melanoma) was > 100 µM and the TGI (SK-OV-3 ovarian) was > 100 µM. The TGI (SN12C renal) was > 100 µM, the TGI (SNB-19 CNS) was > 100 µM and the TGI (SNB-75 CNS) was > 100 µM. The TGI (SR leukemia) was > 100 µM, the TGI (SW-620 colon) was > 100 µM and the TGI (T-47D breast) was > 100 µM. For the same molecule, the TGI (TK-10 renal) was > 100 µM, the TGI (U251 CNS) was > 100 µM and the TGI (UACC-257 melanoma) was > 100 µM. For the same molecule, the TGI (UACC-62 melanoma) was > 100 µM and the TGI (UO-31 renal) was > 100 µM.

For `CC(=O)Oc1ccc2c3c1[C@H]1O[C@H]1c1cccc(c1-3)[C@@H]1O[C@H]21`, the TGI (786-0 renal) was 6.01 µM, the TGI (A498 renal) was 33.8 µM and the TGI (A549 NSCLC) was 22.1 µM. For the same molecule, the TGI (ACHN renal) was 37.4 µM, the TGI (BT-549 breast) was 23.6 µM and the TGI (CAKI-1 renal) was 7.96 µM. For the same molecule, the TGI (COLO 205 colon) was 27.4 µM, the TGI (DU-145 prostate) was 20.8 µM and the TGI (EKVX NSCLC) was 36.9 µM. It also gave a TGI (HCC-2998 colon) of 25.3 µM, a TGI (HCT-116 colon) of 34.4 µM and a TGI (HCT-15 colon) of 13.1 µM. It also gave a TGI (HL-60(TB) leukemia) of 6.61 µM, a TGI (HOP-62 NSCLC) of 17.5 µM and a TGI (HOP-92 NSCLC) of 24.9 µM. For the same molecule, the TGI (HS 578T breast) was 14.4 µM, the TGI (HT29 colon) was 47.4 µM and the TGI (K-562 leukemia) was > 100 µM. For the same molecule, the TGI (KM12 colon) was 27.5 µM, the TGI (LOX IMVI melanoma) was 4.13 µM and the TGI (M14 melanoma) was 10.2 µM. For the same molecule, the TGI (MALME-3M melanoma) was 5.76 µM, the TGI (MCF7 breast) was > 100 µM and the TGI (MDA-MB-231 breast) was 31.5 µM. The TGI (MDA-MB-435) was 4.26 µM, the TGI (MDA-N) was 20.9 µM and the TGI (MOLT-4 leukemia) was > 100 µM. The TGI (NCI-H226 lung) was 56.8 µM, the TGI (NCI-H23 lung) was 12.7 µM and the TGI (NCI-H522 lung) was 4.51 µM. The TGI (NCI/ADR-RES ovarian) was 43.5 µM, the TGI (OVCAR-3 ovarian) was 11.8 µM and the TGI (OVCAR-4 ovarian) was 18.6 µM. The TGI (OVCAR-5 ovarian) was 31.8 µM, the TGI (OVCAR-8 ovarian) was 9.88 µM and the TGI (PC-3 prostate) was 32.9 µM. For the same molecule, the TGI (RPMI-8226 leukemia) was > 100 µM, the TGI (RXF 393 renal) was 6.84 µM and the TGI (SF-268 CNS) was 14.4 µM. It also gave a TGI (SF-295 CNS) of 25 µM, a TGI (SK-MEL-2 melanoma) of 39.6 µM and a TGI (SK-MEL-28 melanoma) of 27.7 µM. It also gave a TGI (SK-MEL-5 melanoma) of 12.1 µM, a TGI (SK-OV-3 ovarian) of 27.9 µM and a TGI (SN12C renal) of 7.55 µM. The TGI (SNB-19 CNS) was 30.5 µM, the TGI (SNB-75 CNS) was 15.7 µM and the TGI (SR leukemia) was > 100 µM. The TGI (SW-620 colon) was 4.59 µM, the TGI (T-47D breast) was 6.79 µM and the TGI (TK-10 renal) was 31.8 µM. It also gave a TGI (U251 CNS) of 18.9 µM, a TGI (UACC-257 melanoma) of 32.9 µM and a TGI (UACC-62 melanoma) of 20.8 µM. For the same molecule, the TGI (UO-31 renal) was 8.94 µM.
